Patent US20140243404A1, “UNIQUE HALOGEN-INDUCED CYCLIZATIONS, REAGENTS THEREFOR, AND COMPOUNDS PRODUCED THEREBY” (The Trustees of Columbia University in the City of New York, priority 2010, published 2014)
Read-outs that look alike come from different tables or passages of the source.

Columns and labels:
[1] = Solubility of the halonium reagents in organic solvents; type: physicochemical
[2] = Storage and handling stability of the halonium reagents; type: physicochemical
[3] = system: reverse transcriptases of the Human Immunodeficiency Virus; conditions: published indications, refs 7c, 7d, cited from earlier work

SMILES: CC[S+](Br)CC [BDSB, bromodiethylsulfonium bromopentachloroantimonate]
- solubility ([1]; acetone, methanol, ethanol, THF, reacts with these solvents): soluble
- solubility ([1]; ambient temperature, CH2Cl2, 1,2-dichloroethane, chloroform, toluene): moderately to slightly soluble
- solubility ([1]; ambient temperature, MeNO2, EtNO2, MeCN, DMSO, DMF, EtOAc): fully soluble
- solubility ([1]; ambient temperature, benzene, hexanes, pentane): insoluble
- solubility ([1]; several organic solvents): good solubility
- stable for ([2]; ambient temperature, enclosed vial): at least 1 week
- stable for ([2]; −20° C.): a year or more

SMILES: CC[S+](Cl)CC [CDSC, Chlorodiethylsulfonium hexachloroantimonate]
- stable for ([2]; −20° C.): at least several months

SMILES: CC1=CC[C@H]2C(C)(C)[C@@H](Br)CC[C@]2(C)[C@@H]1Cc1cc(O)c(CC(=O)O)cc1O [peyssonoic acid A]
- inhibitor of the reverse transcriptases of the Human Immunodeficiency Virus [3]: possessed such activity

SMILES: C=C1CC[C@H]2C(C)(C)[C@@H](Br)CC[C@]2(C)[C@@H]1Cc1cc(O)c(C=O)cc1O [peyssonol A]
- inhibitor of the reverse transcriptases of the Human Immunodeficiency Virus [3]: allosteric inhibitor of the reverse transcriptases
- inhibitor of the reverse transcriptases of the Human Immunodeficiency Virus ([3]; listed as peysonnol A): possessed such activity
